# Results from patent publication US20240041870A1, “METHODS OF TREATING SYSTEMIC LUPUS ERYTHEMATOSUS” (AbbVie Inc., priority 2022, published 2024).
# Test system: subjects with moderately to severely active SLE
# Experiment: Exposure-response analysis (logistic regression) of upadacitinib steady-state Cavg vs efficacy endpoints
# Design: species or system human
# Procedure: Quartile plots for the relationships between upadacitinib steady-state (SS) Cavg and efficacy responses at Week 24 are shown in FIG. 5A to 5C. Specifically, FIG. 5A is an exposure-response quartile plot for upadacitinib efficacy at week 24 for the efficacy endpoint of SLE Responder Index (SRI-4) and Steroid Dose ≤10 mg prednisone equivalent QD, FIG. 5B is an exposure-response quartile plot for upadacitinib efficacy at week 24 for the efficacy endpoint of BILAG-Based Combined Lupus Assessment (BICLA), and FIG. 5C is an exposure-response quartile plot for upadacitinib efficacy at week 24 for the efficacy endpoint of SLE Responder Index (SRI-4).
# The highest upadacitinib steady-state (SS) Cavg quartile (which would be equivalent to 45 mg QD exposures) was consistently associated with the highest observed response across the three endpoints and was the primary driver for upadacitinib exposure-response trends. The exposure-response model-predicted median (90% prediction interval) percentage of subjects achieving SRI-4 and steroid dose ≤10 mg prednisone equivalent QD, BICLA, and SRI-4 at Week 24 is 50% (42% to 58%), 57% (50% to 65%), and 55% (47% to 62%), respectively, for upadacitinib 30 mg UPA QD compared to 38% (31% to 46%), 39% (32% to 46%), and 40% (32% to 47%), respectively, for placebo. A upadacitinib 45 mg QD dose is predicted to provide 6% to 8% greater responses compared to 30 mg QD.
# Quartile plots for the relationships between upadacitinib Cavg and efficacy responses at Week 48 are shown in FIGS. 10A-10C (SRI-4 and steroid dose ≤10 mg prednisone equivalent, SRI-4, and BICLA, respectively). Based on logistic regression analysis, there is an exposure-response relationship (p <0.05) for upadacitinib with each of the Week 48 efficacy endpoints (SRI-4 and steroid dose (10 mg prednisone equivalent QD, BICLA, and SRI-4). […]
smiles,measurement,setting,value
"CC[C@@H]1CN(C(=O)NCC(F)(F)F)C[C@@H]1c1cnc2cnc3[nH]ccc3n12 [Upadacitinib, (3S,4R)-3-ethyl-4-(3H-imidazo[1,2-a]pyrrolo[2,3-e]pyrazin-8-yl)-N-(2,2,2-trifluoroethyl)pyrrolidine-1-carboxamide]",plateau for efficacy at the plasma exposures evaluated,"exposures associated with 30 mg QD, Week 24",not reached
same,"relationship of upadacitinib plasma exposures with SRI-4 and steroid dose ≤10 mg prednisone equivalent, SRI-4, and BICLA at Week 24","logistic regression, p<0.05, Week 24",statistically significant relationship
same,"exposure-response relationship with SRI-4 and steroid dose ≤10 mg prednisone equivalent, SRI-4, and BICLA at Week 48","logistic regression, p<0.05, Week 48",clear exposure-response relationship
